Converted amounts (≈) assume the structure as drawn.
Key:
Acinetobacter baumannii [1] = test: Bactericidal activity against Acinetobacter baumannii 10591 assessed as inhibition of bacterial growth incubated for 16 to 20 hrs in presence of human serum; format: functional; settings: time 16-20 hrs
Salmonella typhimurium [2] = test: Antibacterial activity against Salmonella typhimurium DT104 assessed as inhibition of bacterial growth incubated for 16 to 20 hrs; format: functional, Salmonella enterica subsp. enterica serovar Typhimurium; settings: Salmonella enterica, time 16-20 hrs
Escherichia coli [3] = test: Bactericidal activity against Escherichia coli 10675 assessed as inhibition of bacterial growth incubated for 16 to 20 hrs; format: functional; settings: time 16-20 hrs
Rhizopus arrhizus [4] = test: Fungicidal activity against Rhizopus oryzae 34550 assessed as inhibition of fungal growth incubated for 72 hrs; format: functional
Klebsiella aerogenes [5] = test: Antibacterial activity against Enterobacter aerogenes 15630 assessed as inhibition of bacterial growth incubated for 16 to 20 hrs; format: functional; settings: time 16-20 hrs
Acinetobacter baumannii [6] = test: Bactericidal activity against Acinetobacter baumannii 10591 assessed as inhibition of bacterial growth incubated for 16 to 20 hrs; format: functional; settings: time 16-20 hrs
Klebsiella pneumoniae [7] = test: Antibacterial activity against Klebsiella pneumoniae TL 297 assessed as inhibition of bacterial growth incubated for 16 to 20 hrs in presence of human serum; format: functional; settings: time 16-20 hrs
Klebsiella aerogenes [8] = test: Bactericidal activity against Enterobacter aerogenes 15630 assessed as inhibition of bacterial growth incubated for 16 to 20 hrs; format: functional; settings: time 16-20 hrs
Enterococcus faecium [9] = test: Antibacterial activity against Enterococcus faecium 10067 assessed as inhibition of bacterial growth incubated for 16 to 20 hrs; format: functional; settings: time 16-20 hrs
[10] = system: Staphylococcus haemolyticus; test: Antibacterial activity against Staphylococcus haemolyticus 15237 assessed as inhibition of bacterial growth incubated for 16 to 20 hrs; format: functional; settings: time 16-20 hrs
Salmonella typhimurium [11] = test: Bactericidal activity against Salmonella typhimurium DT104 assessed as inhibition of bacterial growth incubated for 16 to 20 hrs; format: functional, Salmonella enterica subsp. enterica serovar Typhimurium; settings: Salmonella enterica, time 16-20 hrs
Klebsiella oxytoca [12] = test: Antibacterial activity against Klebsiella oxytoca 13985 assessed as inhibition of bacterial growth incubated for 16 to 20 hrs; format: functional; settings: time 16-20 hrs
Pseudomonas aeruginosa [13] = test: Bactericidal activity against Pseudomonas aeruginosa 19660 assessed as inhibition of bacterial growth incubated for 16 to 20 hrs in presence of human serum; format: functional; settings: time 16-20 hrs
Escherichia coli [14] = test: Bactericidal activity against Escherichia coli 10675 assessed as inhibition of bacterial growth incubated for 16 to 20 hrs in presence of human serum; format: functional; settings: time 16-20 hrs
Escherichia coli [15] = test: Antibacterial activity against Escherichia coli 10675 assessed as inhibition of bacterial growth incubated for 16 to 20 hrs in presence of human serum; format: functional; settings: time 16-20 hrs
Yersinia enterocolitica [16] = test: Bactericidal activity against Yersinia enterocolitica 13999 assessed as inhibition of bacterial growth incubated for 16 to 20 hrs; format: functional; settings: time 16-20 hrs
Klebsiella oxytoca [17] = test: Antibacterial activity against Klebsiella oxytoca 13985 assessed as inhibition of bacterial growth incubated for 16 to 20 hrs in presence of human serum; format: functional; settings: time 16-20 hrs
Pseudomonas aeruginosa [18] = test: Bactericidal activity against Pseudomonas aeruginosa 19660 assessed as inhibition of bacterial growth incubated for 16 to 20 hrs; format: functional; settings: time 16-20 hrs
Klebsiella pneumoniae [19] = test: Bactericidal activity against Klebsiella pneumoniae 10692 assessed as inhibition of bacterial growth incubated for 16 to 20 hrs; format: functional; settings: time 16-20 hrs
Klebsiella pneumoniae [20] = test: Antibacterial activity against Klebsiella pneumoniae 10692 assessed as inhibition of bacterial growth incubated for 16 to 20 hrs; format: functional; settings: time 16-20 hrs
Klebsiella oxytoca [21] = test: Bactericidal activity against Klebsiella oxytoca 13985 assessed as inhibition of bacterial growth incubated for 16 to 20 hrs; format: functional; settings: time 16-20 hrs
Acinetobacter baumannii [22] = test: Antibacterial activity against Acinetobacter baumannii 10591 assessed as inhibition of bacterial growth incubated for 16 to 20 hrs in presence of human serum; format: functional; settings: time 16-20 hrs
Salmonella enterica [23] = test: Bactericidal activity against Salmonella enterica 15455 assessed as inhibition of bacterial growth incubated for 16 to 20 hrs; format: functional; settings: time 16-20 hrs
Yersinia enterocolitica [24] = test: Antibacterial activity against Yersinia enterocolitica 13999 assessed as inhibition of bacterial growth incubated for 16 to 20 hrs; format: functional; settings: time 16-20 hrs
Acinetobacter baumannii [25] = test: Antibacterial activity against Acinetobacter baumannii 10591 assessed as inhibition of bacterial growth incubated for 16 to 20 hrs; format: functional; settings: time 16-20 hrs
Enterococcus faecalis [26] = test: Bactericidal activity against Enterococcus faecalis 10066 assessed as inhibition of bacterial growth incubated for 16 to 20 hrs; format: functional; settings: time 16-20 hrs
Salmonella enterica [27] = test: Bactericidal activity against Salmonella enterica 15455 assessed as inhibition of bacterial growth incubated for 16 to 20 hrs in presence of human serum; format: functional; settings: time 16-20 hrs
Enterococcus faecalis [28] = test: Antibacterial activity against Enterococcus faecalis 10066 assessed as inhibition of bacterial growth incubated for 16 to 20 hrs; format: functional; settings: time 16-20 hrs
Salmonella typhimurium [29] = test: Antibacterial activity against Salmonella typhimurium DT104 assessed as inhibition of bacterial growth incubated for 16 to 20 hrs in presence of human serum; format: functional, Salmonella enterica subsp. enterica serovar Typhimurium; settings: Salmonella enterica, time 16-20 hrs
Klebsiella oxytoca [30] = test: Bactericidal activity against Klebsiella oxytoca 13985 assessed as inhibition of bacterial growth incubated for 16 to 20 hrs in presence of human serum; format: functional; settings: time 16-20 hrs
Enterococcus faecium [31] = test: Bactericidal activity against Enterococcus faecium 10067 assessed as inhibition of bacterial growth incubated for 16 to 20 hrs in presence of human serum; format: functional; settings: time 16-20 hrs
Vibrio vulnificus [32] = test: Antibacterial activity against Vibrio vulnificus 204 assessed as inhibition of bacterial growth incubated for 16 to 20 hrs in presence of human serum; format: functional; settings: time 16-20 hrs
Pseudomonas aeruginosa [33] = test: Antibacterial activity against Pseudomonas aeruginosa 19660 assessed as inhibition of bacterial growth incubated for 16 to 20 hrs; format: functional; settings: time 16-20 hrs
Salmonella enterica [34] = test: Antibacterial activity against Salmonella enterica 15455 assessed as inhibition of bacterial growth incubated for 16 to 20 hrs in presence of human serum; format: functional; settings: time 16-20 hrs
Klebsiella pneumoniae [35] = test: Antibacterial activity against Klebsiella pneumoniae BAA 2473 assessed as inhibition of bacterial growth incubated for 16 to 20 hrs; format: functional; settings: time 16-20 hrs
Salmonella enterica [36] = test: Antibacterial activity against Salmonella enterica 15455 assessed as inhibition of bacterial growth incubated for 16 to 20 hrs; format: functional; settings: time 16-20 hrs
Vibrio vulnificus [37] = test: Antibacterial activity against Vibrio vulnificus 204 assessed as inhibition of bacterial growth incubated for 16 to 20 hrs; format: functional; settings: time 16-20 hrs
Klebsiella pneumoniae [38] = test: Bactericidal activity against Klebsiella pneumoniae BAA 2473 assessed as inhibition of bacterial growth incubated for 16 to 20 hrs; format: functional; settings: time 16-20 hrs
Klebsiella pneumoniae [39] = test: Bactericidal activity against Klebsiella pneumoniae TL 297 assessed as inhibition of bacterial growth incubated for 16 to 20 hrs in presence of human serum; format: functional; settings: time 16-20 hrs
Staphylococcus aureus [40] = test: Antibacterial activity against Staphylococcus aureus 10780 assessed as inhibition of bacterial growth incubated for 16 to 20 hrs; format: functional; settings: time 16-20 hrs
Vibrio vulnificus [41] = test: Bactericidal activity against Vibrio vulnificus 204 assessed as inhibition of bacterial growth incubated for 16 to 20 hrs in presence of human serum; format: functional; settings: time 16-20 hrs
Rhizopus arrhizus [42] = test: Antifungal activity against Rhizopus oryzae 34550 assessed as inhibition of fungal growth incubated for 16 to 20 hrs; format: functional; settings: time 16-20 hrs
Pseudomonas aeruginosa [43] = test: Antibacterial activity against Pseudomonas aeruginosa 19660 assessed as inhibition of bacterial growth incubated for 16 to 20 hrs in presence of human serum; format: functional; settings: time 16-20 hrs
Salmonella typhimurium [44] = test: Bactericidal activity against Salmonella typhimurium DT104 assessed as inhibition of bacterial growth incubated for 16 to 20 hrs in presence of human serum; format: functional, Salmonella enterica subsp. enterica serovar Typhimurium; settings: Salmonella enterica, time 16-20 hrs
Vibrio vulnificus [45] = test: Bactericidal activity against Vibrio vulnificus 204 assessed as inhibition of bacterial growth incubated for 16 to 20 hrs; format: functional; settings: time 16-20 hrs
Escherichia coli [46] = test: Antibacterial activity against Escherichia coli 10675 assessed as inhibition of bacterial growth incubated for 16 to 20 hrs; format: functional; settings: time 16-20 hrs
[47] = system: Staphylococcus haemolyticus; test: Bactericidal activity against Staphylococcus haemolyticus 15237 assessed as inhibition of bacterial growth incubated for 16 to 20 hrs; format: functional; settings: time 16-20 hrs
Enterococcus faecium [48] = test: Bactericidal activity against Enterococcus faecium 10067 assessed as inhibition of bacterial growth incubated for 16 to 20 hrs; format: functional; settings: time 16-20 hrs
Staphylococcus aureus [49] = test: Bactericidal activity against Staphylococcus aureus 10780 assessed as inhibition of bacterial growth incubated for 16 to 20 hrs; format: functional; settings: time 16-20 hrs
Enterococcus faecium [50] = test: Antibacterial activity against Enterococcus faecium 10067 assessed as inhibition of bacterial growth incubated for 16 to 20 hrs in presence of human serum; format: functional; settings: time 16-20 hrs
Rhizopus arrhizus [51] = test: Fungicidal activity against Rhizopus oryzae 34550 assessed as inhibition of fungal growth incubated for 16 to 20 hrs in presence of human serum; format: functional; settings: time 16-20 hrs

MIC (Salmonella typhimurium [2]): < 1.56 µM
MIC (Klebsiella aerogenes [5]): 0.1 µM (≈ 0.0383 µg/mL)
MIC (Klebsiella pneumoniae [7]): 200 µM
MIC (Enterococcus faecium [9]): 50 µM (≈ 19.2 µg/mL)
MIC (Klebsiella oxytoca [12]): < 0.39 µM
MIC (Escherichia coli [15]): 0.1 µM
MIC (Klebsiella oxytoca [17]): < 0.39 µM
MIC (Klebsiella pneumoniae [20]): 0.2 µM (≈ 0.0767 µg/mL)
MIC (Acinetobacter baumannii [22]): 3.13 µM
MIC (Yersinia enterocolitica [24]): < 1.56 µM
MIC (Acinetobacter baumannii [25]): 6.25 µM (≈ 2.4 µg/mL)
MIC (Enterococcus faecalis [28]): 12.5 µM (≈ 4.79 µg/mL)
MIC (Salmonella typhimurium [29]): < 0.369 µM
MIC (Vibrio vulnificus [32]): < 0.39 µM
MIC (Pseudomonas aeruginosa [33]): 3.13 µM (≈ 1.2 µg/mL)
MIC (Salmonella enterica [34]): < 0.39 µM
MIC (Klebsiella pneumoniae [35]): 800 µM (≈ 307 µg/mL)
MIC (Salmonella enterica [36]): < 1.56 µM
MIC (Vibrio vulnificus [37]): < 0.39 µM
MIC (Staphylococcus aureus [40]): 0.78 µM (≈ 0.299 µg/mL)
MIC (Rhizopus arrhizus [42]): > 100 µM
MIC (Pseudomonas aeruginosa [43]): 3.13 µM
MIC (Escherichia coli [46]): 0.2 µM (≈ 0.0767 µg/mL)
MIC (Enterococcus faecium [50]): 100 µM
SMILES: C[C@@H](O)[C@H]1C(=O)N2C(C(=O)O)=C(S[C@@H]3CN[C@H](C(=O)N(C)C)C3)[C@H](C)[C@H]12 [MEROPENEM]
MBC (Acinetobacter baumannii [1]): 6.25 µM
MBC (Escherichia coli [3]): 0.2 µM (≈ 0.0767 µg/mL)
MFC (Rhizopus arrhizus [4]): > 100 µM
MBC (Acinetobacter baumannii [6]): 6.25 µM (≈ 2.4 µg/mL)
MBC (Klebsiella aerogenes [8]): 6.25 µM (≈ 2.4 µg/mL)
MIC [10]: < 1.56 µM
MBC (Salmonella typhimurium [11]): > 100 µM
MBC (Pseudomonas aeruginosa [13]): 6.25 µM
MBC (Escherichia coli [14]): 0.1 µM
MBC (Yersinia enterocolitica [16]): < 1.56 µM
MBC (Pseudomonas aeruginosa [18]): 6.25 µM (≈ 2.4 µg/mL)
MBC (Klebsiella pneumoniae [19]): 0.2 µM (≈ 0.0767 µg/mL)
MBC (Klebsiella oxytoca [21]): 0.1 µM (≈ 0.0383 µg/mL)
MBC (Salmonella enterica [23]): < 1.56 µM
MBC (Enterococcus faecalis [26]): 100 µM (≈ 38.3 µg/mL)
MBC (Salmonella enterica [27]): < 0.39 µM
MBC (Klebsiella oxytoca [30]): < 0.39 µM
MBC (Enterococcus faecium [31]): 100 µM
MBC (Klebsiella pneumoniae [38]): 400 µM (≈ 153 µg/mL)
MBC (Klebsiella pneumoniae [39]): 400 µM
MBC (Vibrio vulnificus [41]): < 0.39 µM
MBC (Salmonella typhimurium [44]): < 0.39 µM
MBC (Vibrio vulnificus [45]): < 0.39 µM
MBC [47]: < 1.56 µM
MBC (Enterococcus faecium [48]): 100 µM (≈ 38.3 µg/mL)
MBC (Staphylococcus aureus [49]): 3.13 µM (≈ 1.2 µg/mL)
MFC (Rhizopus arrhizus [51]): 100 µM
